Data taken from publication PMC11969024, “Development of chemokine network inhibitors using combinatorial saturation mutagenesis” (Communications Biology, 2025).

System: J:CXCR1 cells (Jurkat cells stably transfected with CXCR1)
Assay: J:CXCR1 cell migration induced by CXCL6, inhibition by peptide
Format: cell-based, human
Settings: peptide 10 uM; CXCL6 at EC80; Dunnett's test
Experimental: Cell lines were confirmed mycoplasma free by monthly testing using a MycoAlert^TM kit (LT07-118, Lonza) following the manufacturer’s instructions. THP1 cells: THP1 cells (ECACC 88081201, a human monocyte leukemia cell line[51]) were obtained from ECACC and were cultured in T175 flasks at 0.3-1 × 10^6 cells/mL in Roswell Park Memorial Institute (RPMI) 1640 medium (R0883, Sigma) with 10% FBS (F9665, Sigma) and 5mM L-glutamine (G7513, Sigma), 37 °C, 5% CO2. J:CXCR1 cells: The J:CXCR1 cell line was cultured in the same manner as THP1 cells at 0.15-1 × 10^6 cells per mL[37]. Activated T-cells: T-cells were isolated, activated and expanded as follows. Briefly, density gradient centrifugation using Lymphoprep^TM density gradient medium (07801, […] Technologies) and a SepMate^TM isolation tube (85450, […] Technologies) was used to isolate peripheral blood mononuclear cells from human leukocyte cones. Two rounds of purification using a human CD8 + T-cell isolation kit (480011, BioLegend) were used to isolate CD8 + T-cells from peripheral blood mononuclear cells. Activation of CD8 + T-cells was performed in ImmunoCult^TM-XF T-cell expansion medium (10982, […] Technologies) with an anti-CD3/anti-CD28 T-cell activator at 25 μl/ml (10991, […] Technologies), supplemented with 10 ng/ml recombinant human IL-2 (200-02, PeproTech) with 1% penicillin/streptomycin. […] The final pellet was resuspended in 1 mL of MACS buffer per 5 mL of initial blood volume and counted using cell size FSC-H/SSC-H parameters with gate settings previously defined by immunostaining (see below). […]
Cell counts were determined using an ATTUNE NxT Flow Cytometer with Cytkick autosampler (ThermoFisher), based on cell size parameters FSC-H/SSC-H, with previously defined gate settings. FSC-H/SSC-H gate settings for primary white blood cells from buffy coats were determined using flow cytometry to establish the granulocyte, monocyte and lymphocyte populations (Supplementary Fig. 13). […]

EEDDYWAYAPLTCYFT [HD2T6W, HD2 point mutant]
inhibition of CXCL6-induced migration of J:CXCR1 cells compared to parental HD2: significant improvement in inhibition
